Like-named read-outs stand apart in the source and are kept apart here.
What was measured:
human DGKα = target: T1, human DGKα (Homo sapiens, UniProt P23743); experiment: DGKα LIPGLO assay (extruded liposome substrate), in vitro DGK inhibition; type: biochemical; conditions: read-out: DGKa LIPGLO IC50
T1 construct: TVMV protease cleavage site (C); Hexa-His (C); made in house; host or cells: Sf9 insect cells (baculovirus, Bac-to-Bac)

human DGKζ = target: T2, human DGKζ (Homo sapiens, UniProt Q13574); experiment: DGKζ LIPGLO assay (extruded liposome substrate), in vitro DGK inhibition; type: biochemical; conditions: read-out: DGKz LIPGLO IC50
T2 construct: TVMV protease cleavage site (C); Hexa-His (C); made in house; host or cells: Sf9 insect cells (baculovirus, Bac-to-Bac)
T2 sequence (Q13574 with tags, fused parts or gaps isoform Q13574-4): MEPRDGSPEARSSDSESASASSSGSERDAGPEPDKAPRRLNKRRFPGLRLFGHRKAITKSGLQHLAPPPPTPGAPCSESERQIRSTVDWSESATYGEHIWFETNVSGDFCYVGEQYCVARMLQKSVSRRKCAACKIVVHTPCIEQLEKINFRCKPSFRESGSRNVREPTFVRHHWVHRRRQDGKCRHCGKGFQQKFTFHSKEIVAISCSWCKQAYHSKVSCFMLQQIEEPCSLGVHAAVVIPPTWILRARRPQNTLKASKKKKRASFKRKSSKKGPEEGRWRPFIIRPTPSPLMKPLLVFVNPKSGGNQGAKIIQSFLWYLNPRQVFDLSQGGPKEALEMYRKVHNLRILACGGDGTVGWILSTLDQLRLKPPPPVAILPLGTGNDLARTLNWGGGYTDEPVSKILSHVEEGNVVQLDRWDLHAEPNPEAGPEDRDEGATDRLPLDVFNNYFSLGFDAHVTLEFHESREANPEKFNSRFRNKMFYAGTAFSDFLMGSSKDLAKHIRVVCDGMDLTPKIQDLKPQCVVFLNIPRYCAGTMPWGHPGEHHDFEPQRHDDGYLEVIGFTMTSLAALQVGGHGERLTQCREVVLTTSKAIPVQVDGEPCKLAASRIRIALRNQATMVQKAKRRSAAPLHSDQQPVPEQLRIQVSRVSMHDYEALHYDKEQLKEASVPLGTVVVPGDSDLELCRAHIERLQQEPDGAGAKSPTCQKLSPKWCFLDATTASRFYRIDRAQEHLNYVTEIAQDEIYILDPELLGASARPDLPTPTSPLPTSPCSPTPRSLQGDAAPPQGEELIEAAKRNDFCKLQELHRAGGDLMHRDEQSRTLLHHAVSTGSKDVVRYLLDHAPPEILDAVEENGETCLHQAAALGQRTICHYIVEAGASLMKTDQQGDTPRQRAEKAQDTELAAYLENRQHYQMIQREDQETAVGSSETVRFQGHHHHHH

T1 sequence (P23743 with tags, fused parts or gaps): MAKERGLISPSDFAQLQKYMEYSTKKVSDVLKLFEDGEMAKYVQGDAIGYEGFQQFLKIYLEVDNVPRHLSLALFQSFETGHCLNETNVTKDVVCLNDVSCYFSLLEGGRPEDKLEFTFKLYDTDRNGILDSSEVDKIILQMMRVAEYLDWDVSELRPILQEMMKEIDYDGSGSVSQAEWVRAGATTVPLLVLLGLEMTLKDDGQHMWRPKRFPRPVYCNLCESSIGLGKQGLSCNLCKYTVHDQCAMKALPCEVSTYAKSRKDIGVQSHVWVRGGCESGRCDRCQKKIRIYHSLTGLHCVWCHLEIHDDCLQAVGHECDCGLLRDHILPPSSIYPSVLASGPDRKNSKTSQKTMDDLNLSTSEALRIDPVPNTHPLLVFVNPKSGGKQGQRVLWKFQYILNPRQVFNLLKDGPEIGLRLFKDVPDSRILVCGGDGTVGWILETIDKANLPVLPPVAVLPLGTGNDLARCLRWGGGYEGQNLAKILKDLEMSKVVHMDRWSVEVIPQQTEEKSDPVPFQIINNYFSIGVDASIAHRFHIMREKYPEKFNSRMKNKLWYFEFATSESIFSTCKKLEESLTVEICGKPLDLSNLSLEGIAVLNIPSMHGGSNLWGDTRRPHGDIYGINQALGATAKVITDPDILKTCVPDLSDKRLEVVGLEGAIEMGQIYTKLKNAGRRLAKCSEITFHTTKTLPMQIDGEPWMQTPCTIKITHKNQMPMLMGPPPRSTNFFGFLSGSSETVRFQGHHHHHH

C[C@@H]1CN(c2c(C#N)c(=O)n(C)c3ccc(Br)nc23)CCN1C(c1ccc(Cl)cc1)c1ccc(Cl)cc1 [Example 102, (R)-4-(4-(bis(4-chlorophenyl)methyl)-3-methylpiperazin-1-yl)-6-bromo-1-methyl-2-oxo-1,2-dihydro-1,5-naphthyridine-3-carbonitrile]
IC50 (human DGKα; liposome (LIPGLO) assay): 2.9 µM | IC50 (human DGKζ; liposome (LIPGLO) assay): 8.3 µM

CC(c1ccc(C(=O)O)cc1)N1C[C@H](C)N(c2c(C#N)c(=O)n(C)c3ccc(C#N)nc23)C[C@H]1C (some centres unmarked) [Example 786]
IC50 (human DGKα; DGKα liposome (LIPGLO) assay): > 250 µM | IC50 (human DGKζ; DGKζ liposome (LIPGLO) assay): 83 µM

C[C@@H]1CN(c2c(C#N)c(=O)n(C)c3ccc(C#N)nc23)[C@@H](C)CN1C(c1ccc(F)cc1)c1cscn1 (single isomer, unassigned) [Example 856]
IC50 (human DGKα; DGKα liposome (LIPGLO) assay): 0.33 µM | IC50 (human DGKζ; DGKζ liposome (LIPGLO) assay): 5.6 µM

CC(c1cc(OC(F)F)ccc1F)N1C[C@H](C)N(c2cc(=O)n(C)c3ccc(C#N)nc23)C[C@H]1C (single isomer, unassigned) [Example 1228]
IC50 (human DGKα; liposome (LIPGLO) assay): 5.4 µM | IC50 (human DGKζ; liposome (LIPGLO) assay): 3 µM

C[C@@H]1CN(c2cc(=O)n(C)c3ccc(C#N)nc23)[C@@H](C)CN1C(c1ccc(F)cc1)c1cncc(F)c1 (stereo partly drawn) [Example 400, 8-((2S,5R)-4-((4-fluorophenyl)(5-fluoropyridin-3-yl)methyl)-2,5-dimethylpiperazin-1-yl)-5-methyl-6-oxo-5,6-dihydro-1,5-naphthyridine-2-carbonitrile]
IC50 (human DGKα; liposome (LIPGLO) assay): 4.2 µM | IC50 (human DGKζ; liposome (LIPGLO) assay): 3.2 µM

CC(c1cccc(OC(F)F)c1)N1C[C@H](C)N(c2cc(=O)n(C)c3ccc(C#N)nc23)C[C@H]1C (single isomer, unassigned) [Example 1272]
IC50 (human DGKα; liposome (LIPGLO) assay): 5 µM | IC50 (human DGKζ; liposome (LIPGLO) assay): 0.66 µM

C[C@@H]1CN(c2cc(=O)n(C)c3ccc(C#N)nc23)[C@@H](C)CN1C(c1ccc(F)cc1)C1CCOCC1 (single isomer, unassigned) [Example 388]
IC50 (human DGKα; liposome (LIPGLO) assay): 8.5 µM | IC50 (human DGKζ; liposome (LIPGLO) assay): 14 µM

Cc1c(F)ccc(C(C)N2C[C@H](C)N(c3cc(=O)n(C)c4ccc(C#N)nc34)C[C@H]2C)c1Cl (single isomer, unassigned) [Example 487]
IC50 (human DGKα; liposome (LIPGLO) assay): 41 µM | IC50 (human DGKζ; liposome (LIPGLO) assay): 11 µM

C[C@H]1CN(C(c2ccc(F)cc2)c2ccc(F)cc2)[C@H](CO)CN1c1cc(=O)n(C)c2ccc(C#N)nc12 [Example 1151]
IC50 (human DGKα; liposome (LIPGLO) assay): 9.6 µM | IC50 (human DGKζ; liposome (LIPGLO) assay): 22 µM

C[C@@H]1CN(c2cc(=O)n(C)c3ccc(C#N)nc23)[C@@H](C)CN1C(c1ccc(OC(F)(F)F)cc1)c1ccccn1 (stereo partly drawn) [Example 405, 8-((2S,5R)-2,5-dimethyl-4-(pyridin-2-yl(4-(trifluoromethoxy)phenyl)methyl)piperazin-1-yl)-5-methyl-6-oxo-5,6-dihydro-1,5-naphthyridine-2-carbonitrile]
IC50 (human DGKα; liposome (LIPGLO) assay): 0.46 µM | IC50 (human DGKζ; liposome (LIPGLO) assay): 4 µM

CC[C@H]1CN(C(c2ccc(F)cc2)c2nc(C3CC3)no2)[C@H](CC)CN1c1cc(=O)n(C)c2ccc(C#N)nc12 (some centres unmarked) [Example 1064]
IC50 (human DGKα; liposome (LIPGLO) assay): 0.08 µM | IC50 (human DGKζ; liposome (LIPGLO) assay): 0.039 µM

Cc1nc2c(C(C)N3C[C@H](C)N(c4cc(=O)n(C)c5ccc(C#N)nc45)C[C@H]3C)cccc2o1 (single isomer, unassigned) [Example 1261]
IC50 (human DGKα; liposome (LIPGLO) assay): 4.2 µM | IC50 (human DGKζ; liposome (LIPGLO) assay): 1.1 µM

COC(=O)c1ccc(C(C)N2CCN(c3c(C#N)c(=O)n(C)c4ccc(C#N)nc34)C[C@H]2C)cc1 (some centres unmarked) [Example 980]
IC50 (human DGKα; DGKα liposome (LIPGLO) assay): 5.7 µM | IC50 (human DGKζ; DGKζ liposome (LIPGLO) assay): 13 µM

C[C@@H]1CN(c2cc(=O)n(C)c3ccc(C#N)nc23)[C@@H](C)CN1C(c1cccc(F)c1)c1ccccn1 (single isomer, unassigned) [Example 374]
IC50 (human DGKα; liposome (LIPGLO) assay): 0.57 µM | IC50 (human DGKζ; liposome (LIPGLO) assay): 3.8 µM

C[C@@H]1CN(c2cc(=O)n(C)c3ccc(C#N)nc23)[C@@H](C)CN1C(c1ccc(F)cc1)c1nc(C(C)(C)C)co1 (single isomer, unassigned) [Example 778]
IC50 (human DGKα; DGKα liposome (LIPGLO) assay): 0.15 µM | IC50 (human DGKζ; DGKζ liposome (LIPGLO) assay): 0.34 µM

Cc1ccc(C(c2ccc(C)cc2)N2C[C@H](C)N(c3cc(=O)n(C)c4ccc(C#N)nc34)C[C@H]2CO)cc1 [Example 1150, 8-((2S,5S)-4-(di-p-tolylmethyl)-5-(hydroxymethyl)-2-methylpiperazin-1-yl)-5-methyl-6-oxo-5,6-dihydro-1,5-naphthyridine-2-carbonitrile]
IC50 (human DGKα; liposome (LIPGLO) assay): 18 µM | IC50 (human DGKζ; liposome (LIPGLO) assay): 18 µM

C[C@@H]1CN(c2cc(=O)n(C)c3ccc(C#N)nc23)[C@@H](C)CN1CCc1ccccc1 [Example 632]
IC50 (human DGKα; liposome (LIPGLO) assay): 6.5 µM | IC50 (human DGKζ; liposome (LIPGLO) assay): 11 µM

C[C@@H]1CN(c2cc(=O)n(C)c3ccc(C#N)nc23)[C@@H](C)CN1C(c1ccc(F)cc1)C1CCS(=O)(=O)CC1 (single isomer, unassigned) [Example 1301]
IC50 (human DGKα; liposome (LIPGLO) assay): 91 µM | IC50 (human DGKζ; liposome (LIPGLO) assay): 3.6 µM

C[C@@H]1CN(c2cc(=O)n(C)c3ccc(C#N)nc23)[C@@H](C)CN1C(c1ccc(F)cc1)c1nc(C2CC2)co1 (stereo partly drawn) [Example 776, 8-((2S,5R)-4-((4-cyclopropyloxazol-2-yl)(4-fluorophenyl)methyl)-2,5-dimethylpiperazin-1-yl)-5-methyl-6-oxo-5,6-dihydro-1,5-naphthyridine-2-carbonitrile]
IC50 (human DGKα; DGKα liposome (LIPGLO) assay): 0.055 µM | IC50 (human DGKζ; DGKζ liposome (LIPGLO) assay): 0.038 µM

CC[C@H]1CN(C(c2ccc(F)cc2)c2csc(C(F)(F)F)n2)[C@H](CC)CN1c1cc(=O)n(C)c2ccc(C#N)nc12 (single isomer, unassigned) [Example 1362]
IC50 (human DGKα; liposome (LIPGLO) assay): 0.16 µM | IC50 (human DGKζ; liposome (LIPGLO) assay): 0.05 µM

Cc1nccc(C(c2ccc(F)cc2)N2CCN(c3c(C#N)c(=O)n(C)c4ccc(C#N)nc34)C[C@H]2C)n1 (stereo partly drawn) [Example 316, 8-((3R)-4-((4-fluorophenyl)(2-methylpyrimidin-4-yl)methyl)-3-methylpiperazin-1-yl)-5-methyl-6-oxo-5,6-dihydro-1,5-naphthyridine-2,7-dicarbonitrile]
IC50 (human DGKα; liposome (LIPGLO) assay): 2.4 µM | IC50 (human DGKζ; liposome (LIPGLO) assay): 0.93 µM

C[C@@H]1CN(c2c(C#N)c(=O)n(C)c3ccc(C#N)nc23)CCN1C(c1ccc(Cl)cc1)c1ccc(C#N)cc1 (single isomer, unassigned) [Example 872]
IC50 (human DGKα; DGKα liposome (LIPGLO) assay): 1.5 µM | IC50 (human DGKζ; DGKζ liposome (LIPGLO) assay): 1.4 µM

CCC(c1cc(Cl)cc2c1OCC2)N1C[C@H](C)N(c2cc(=O)n(C)c3ccc(C#N)nc23)C[C@H]1C (stereo partly drawn) [Example 353, 8-((2S,5R)-4-(1-(5-chloro-2,3-dihydrobenzofuran-7-yl)propyl)-2,5-dimethylpiperazin-1-yl)-5-methyl-6-oxo-5,6-dihydro-1,5-naphthyridine-2-carbonitrile]
IC50 (human DGKα; liposome (LIPGLO) assay): 72 µM | IC50 (human DGKζ; liposome (LIPGLO) assay): 1.4 µM

CC(c1cccc(C(F)(F)F)c1)N1CCN(c2c(C#N)c(=O)n(C)c3ccc(C#N)nc23)C[C@H]1C (single isomer, unassigned) [Example 971]
IC50 (human DGKα; DGKα liposome (LIPGLO) assay): 1.8 µM | IC50 (human DGKζ; DGKζ liposome (LIPGLO) assay): 4.9 µM

CC[C@@H]1CN(c2cc(=O)n(C)c3ccc(C#N)nc23)[C@@H](C)CN1C(C)c1c(F)cc(F)cc1F (single isomer, unassigned) [Example 1089]
IC50 (human DGKα; liposome (LIPGLO) assay): 0.51 µM | IC50 (human DGKζ; liposome (LIPGLO) assay): 0.12 µM

CC(c1ccc(Br)cc1)N1C[C@H](C)N(c2c(C#N)c(=O)n(C)c3ccc(C#N)nc23)C[C@H]1C (single isomer, unassigned) [Example 790]
IC50 (human DGKα; DGKα liposome (LIPGLO) assay): 0.61 µM | IC50 (human DGKζ; DGKζ liposome (LIPGLO) assay): > 250 µM

CC[C@@H]1CN(c2cc(=O)n(C)c3ccc(C#N)nc23)[C@@H](C)CN1C(c1ccc(F)cc1)c1nc(C2CC2)no1 (some centres unmarked) [Example 1116]
IC50 (human DGKα; liposome (LIPGLO) assay): 0.031 µM | IC50 (human DGKζ; liposome (LIPGLO) assay): 0.013 µM

C[C@@H]1CN(c2cc(=O)n(C)c3ccc(C#N)nc23)[C@@H](C)CN1C(c1ccc(F)cc1)c1cccnn1 (single isomer, unassigned) [Example 384]
IC50 (human DGKα; liposome (LIPGLO) assay): 1.5 µM | IC50 (human DGKζ; liposome (LIPGLO) assay): 6.9 µM

C[C@@H]1CN(c2cc(=O)n(C)c3ccc(C#N)nc23)[C@@H](C)CN1C(c1ccc(F)cc1)c1nnc(C2CC2)s1 (stereo partly drawn) [Example 774, 8-((2S,5R)-4-((5-cyclopropyl-1,3,4-thiadiazol-2-yl)(4-fluorophenyl)methyl)-2,5-dimethylpiperazin-1-yl)-5-methyl-6-oxo-5,6-dihydro-1,5-naphthyridine-2-carbonitrile]
IC50 (human DGKα; DGKα liposome (LIPGLO) assay): 0.63 µM | IC50 (human DGKζ; DGKζ liposome (LIPGLO) assay): 1.1 µM

Cc1ccc(CN2CCN(c3c(C#N)c(=O)n(C)c4ccc(C#N)nc34)C[C@H]2C)cc1 [Example 1007]
IC50 (human DGKα; DGKα liposome (LIPGLO) assay): 0.42 µM | IC50 (human DGKζ; DGKζ liposome (LIPGLO) assay): 3.9 µM

C[C@@H]1CN(c2c(C#N)c(=O)n(C)c3ccc(C#N)nc23)CCN1Cc1cccnc1 [Example 998]
IC50 (human DGKα; DGKα liposome (LIPGLO) assay): 21 µM | IC50 (human DGKζ; DGKζ liposome (LIPGLO) assay): > 250 µM

CC(C)[C@H]1CN(c2c(C#N)c(=O)n(C)c3ccc(Br)nc23)CCN1C(c1ccc(F)cc1)c1ccc(F)cc1 [Example 11, (S)-4-(4-(bis(4-fluorophenyl)methyl)-3-isopropylpiperazin-1-yl)-6-bromo-1-methyl-2-oxo-1,2-dihydro-1,5-naphthyridine-3-carbonitrile]
IC50 (human DGKα; liposome (LIPGLO) assay): 3.6 µM | IC50 (human DGKζ; liposome (LIPGLO) assay): 240 µM

C[C@@H]1CN(c2cc(=O)n(C)c3ccc(C#N)nc23)[C@@H](C)CN1C(COC(F)F)c1ccc(F)cc1 (single isomer, unassigned) [Example 1188]
IC50 (human DGKα; liposome (LIPGLO) assay): 0.029 µM | IC50 (human DGKζ; liposome (LIPGLO) assay): 0.78 µM

Cn1c(=O)cc(N2CCN(C(c3ccc(F)cc3)c3ccc(F)cc3)CC2C#N)c2nc(C#N)ccc21 (centres unmarked) [Example 145, 8-(4-(bis(4-fluorophenyl)methyl)-2-cyanopiperazin-1-yl)-5-methyl-6-oxo-5,6-dihydro-1,5-naphthyridine-2-carbonitrile]
IC50 (human DGKα; liposome (LIPGLO) assay): 9 µM | IC50 (human DGKζ; liposome (LIPGLO) assay): 23 µM

Cc1ncc(C(c2ccc(Cl)cc2)N2C[C@H](C)N(c3cc(=O)n(C)c4ccc(C#N)nc34)C[C@H]2C)cn1 (stereo partly drawn) [Example 385, 8-((2S,5R)-4-((4-chlorophenyl) (2-methylpyrimidin-5-yl)methyl)-2,5-dimethylpiperazin-1-yl)-5-methyl-6-oxo-5,6-dihydro-1,5-naphthyridine-2-carbonitrile]
IC50 (human DGKα; liposome (LIPGLO) assay): 3.3 µM | IC50 (human DGKζ; liposome (LIPGLO) assay): 6.3 µM

CC(c1ccc(F)c(C#N)c1)N1C[C@H](C)N(c2cc(=O)n(C)c3ccc(C#N)nc23)C[C@H]1C (some centres unmarked) [Example 1262]
IC50 (human DGKα; liposome (LIPGLO) assay): 5.4 µM | IC50 (human DGKζ; liposome (LIPGLO) assay): 1.3 µM

Cc1nc2ccc(C(C)N3C[C@H](C)N(c4cc(=O)n(C)c5ccc(C#N)nc45)C[C@H]3C)cc2s1 (single isomer, unassigned) [Example 1264]
IC50 (human DGKα; liposome (LIPGLO) assay): 10 µM | IC50 (human DGKζ; liposome (LIPGLO) assay): 3.6 µM
